Measured values as given in patent US4228160A (priority 1978, dated 1980).
Converted amounts (≈) assume the structure as drawn. Read-outs that look alike come from different tables or passages of the source.

Legend:
[1] = Diffusion test through semipermeable membrane; format: physicochemical
Description: The two sides of a diffusion cell are separated by a semipermeable membrane.

in vivo = test: in vivo; design: species or system rat (CFY strain); settings: rat, in vivo, po, 5 mg./kg. p.o.
Description: (§1) Subacute toxicity test was carried out in male and female animals derived from CFY strain and 10--10 animals were treated for each substance and for male and female rats each.
(§2) At the beginning of the investigation the animals were 7 weeks old and weighed 150-170 g. The animals were kept at a constant temperature (22°-24° C.) and under constant relative humidity (45-50%). During treatment the animals were on a standard diet and drank water ad libitum.
(§3) The animals were treated daily at the same time of the day, in the morning. The test compound and the reference substance were administered in the form of a suspension prepared with 1% methyl cellulose through an oesophagial sound. The animals of the control group obtained 1% methyl cellulose per os. The weight increase of the animals and their clinical states were registered during the treatment every week.
(§4) 1. Control: 1% methyl cellulose suspension 0.2 ml./100 g. per os;
(§5) Investigation: the animals were treated for 28 days.

rat [2] = test: in vivo; design: species or system rat (CFY strain)
Description: as §1, §2, §3, §4, §5

[3] = Solubility tests at different pH; format: physicochemical; settings: pH=2
ovariectomized rat = test: Pregnancy protective activity in the ovariectomized rat; format: in vivo, rat (CFY strain); settings: per os
Description: Test animal: female rat of an average weight of 308 g., derived from 18 CFY strain
The ovary of the animals was removed on the 17th day of pregnancy and the animals were placed individually in cages.
6 animals were used as control.
On the 19th day and 20th day in the morning of the pregnancy the treatment was repeated.

[4] = aqueous solution, cited from earlier work
[5] = cited from earlier work
[6] = Stability in solubility test (thin layer chromatography); format: physicochemical; settings: under the conditions of the solubility tests
rat [7] = format: in vivo, rat (Long-Evans strain)
Description: As a reference compound pure Indomethacin is used.
Subacute toxicity test was carried out in male and female animals derived from Long-Evans strain, 10--10 animals were treated for each test compound and both for female and male animals. At the beginning of the test the animals were 7 week old, of an average bodyweight of 140-160 g. The animals were kept at constant temperature (22°-24° C.) and under constant relative humidity (45-50%). During the treatment the animals were on a standard diet and drank water ad libitum.
The subacute toxicity test corresponds to a 4 weeks' treatment period. The animals were treated daily at the same time in the morning. The complex of a molar ratio 1:1 and the reference substance were administered in the form of a suspension in 1% methyl cellulose through an oesophaged sound. The animals of the control group get 1% methyl cellulose per os. The weight increase and the clinical state of the animals were registered during the treatment every week.
1. Control: 1% methyl cellulose, 0.2 ml./100 g. per os
The animals were treated for 28 days. On the 29th day the living animals were exterminated with ether and the stomach and the duodenum were prepared. Also the stomach and duodenum of the animals perished during the treatment were prepared.
In each case the mucous membrane of the stomach, bile and intestine were examined macroscopically and the number of the eventual ulcers and erosions was determined.

inflammation = test: Speed of onset and duration of antiinflammatory activity, Carrageenin feet inflammation; format: in vivo, rat (female, strain CFY); settings: simultaneous administration with Carrageenin (FIG. 5)
Description: The test compound, the reference substance, the animals, the treatment, doses, investigation are all the same as described above. The differences can be found below.
In this series of tests the following investigations were carried out:
2. Carrageenin was given 1, 2 and 3 hours after the administration of the antiinflammatory agent and the results were evaluated after 3 hours. The animals were exterminated with ether and the weight of the separated untreated feet and feet treated with Carrageenin was measured. The feet were separated above the metacarpus.
The weight difference of the untreated and treated feet in the same animal was calculated. […] The antiinflammatory activity was calculated in percent and the results are plotted in FIGS. 4 and 5.

[8] = number related to treated animals, 28 days p.o., 40.3 mg./kg. CD-Ind or 5.0 mg./kg. Ind., control 0/10
[9] = 16 mg./kg. 1:1 complex or 5 mg./kg. Indomethacin p.o., control 0/10
[10] = 28 days, 16 mg./kg 1:1 complex or 5 mg./kg. Indomethacin p.o., control 0/10

With `COc1ccc2c(c1)c(CC(=O)O)c(C)n2C(=O)c1ccc(Cl)cc1` [Indomethacin, 1-(p-Chloro-benzoyl)-5-methoxy-2-methyl-indol-3-acetic acid] the time to equilibrium ([1]; pure buffer on other side) was 4 h, the “distribution of Indomethacin” value ([1]; β-cyclodextrin buffer solution on other side, 4 hours) was “more Indomethacin on the β-cyclodextrin side after 4 hours, than on the Indomethacin side” and the mortality at 336 h (in vivo; by the 14th day, read-out: dead animals, male) was 80%. The mortality at 504 h (in vivo; by the 21st day, read-out: dead animals, female) was 60%, the “erosion, female” value (rat [2]; [8]) was 7/10 and the “ulcer, female” value (rat [2]; [8]) was 6/10. The “ulcer, male” value (rat [2]; [8]) was 7/10, the “erosion, male” value (rat [2]; number related to treated animals, 28 days p.o., 40.3 mg./kg. CD-Ind or 5.0 mg./kg. Ind., control 1/10) was 9/10 and the Average body weight (rat [2]; week 0, control 152.5) was 164.5 g. For the same compound, the Average body weight (rat [2]; week 0, control 154.5) was 161.5 g, the Average body weight (rat [2]; week 1, control 183.0) was 182.0 g and the Average body weight (rat [2]; week 1, control 196.5) was 210.7 g. For the same compound, the Average body weight (rat [2]; week 2, control 209.0) was 177.5 g, the Average body weight (rat [2]; week 2, control 240.5) was 212.5 g and the Average body weight (rat [2]; week 3, control 222.0) was 206.5 g. The Average body weight (rat [2]; week 3, control 276.5) was 287.5 g, the Average body weight (rat [2]; week 4, control 241.0) was 221.2 g and the Average body weight (rat [2]; week 4, control 300.5) was 320.0 g. The solubility [3] was “substantially insoluble”, the “foetus retention compared with the control” value (ovariectomized rat) was “significantly increased the percentage of the foetus retention” and the foeti left alive (ovariectomized rat; 1.25 mg./kg. Indomethacin on 18th day, repeated 19th and 20th day, dissected 21st day, control 16.1%) was 58.8%. For the same compound, the hydrolysis ([4]; in the presence of glucose) was “hydrolyses rapidly”, the hydrolysis ([4]; in the presence of α-cyclodextrin) was “slowly” and the hydrolysis ([4]; in the presence of β-cyclodextrin) was “inhibits hydrolysis”. The original solubility ([5]; 35° C., aqueous, without cyclodextrin) was 350 µM, the “solubility increased by cyclodextrin” value ([5]; aqueous solution with cyclodextrin) was 980 µM (≈ 351 µg/mL) and the solubility increase ([5]; with cyclodextrin vs original) was 2.8 times. The “decomposition of Indomethacin” value [6] was “not decomposed”, the “animals with ulcers, female” value (rat [7]; 5 mg./kg.) was 70% and the “animals with ulcers, male” value (rat [7]; 5 mg./kg.) was 80%. For the same compound, the “Lethality, 7th day, female” value (rat [7]; [9]) was 1/10, the “Lethality, 7th day, male” value (rat [7]; [9]) was 4/10 and the “Lethality, 14th day, female” value (rat [7]; [9]) was 2/10. For the same compound, the “Lethality, 14th day, male” value (rat [7]; [9]) was 4/10, the “Lethality, 21st day, female” value (rat [7]; [9]) was 3/10 and the “Lethality, 21st day, male” value (rat [7]; [9]) was 5/10. The “Lethality, 28th day, female” value (rat [7]; [9]) was 6/10, the “Lethality, 28th day, male” value (rat [7]; [9]) was 6/10 and the “ulcer, female” value (rat [7]; [10]) was 7/10. For the same compound, the “ulcer, male” value (rat [7]; [10]) was 8/10, the “erosion, female” value (rat [7]; 28 days, 16 mg./kg 1:1 complex or 5 mg./kg. Indomethacin p.o., control 2/10) was 10/10 and the “erosion, male” value (rat [7]; 28 days, 16 mg./kg 1:1 complex or 5 mg./kg. Indomethacin p.o., control 3/10) was 10/10. The clinical symptoms (rat [7]; from third day, 5 mg./kg. Indomethacin or 16 mg./kg. 1:1 complex) was “bradypnoe and depression” and the “antiinflammatory activity 6 hours after treatment” value (inflammation) was “inflammation increases after 6 hours”.
